Experimental data from patent US9963445B2, “Chemical compounds” (SYNGENTA PARTICIPATIONS AG, priority 2013, dated 2018).

The compounds below were run on Setaria faberi (assay: Post-emergence herbicidal activity, glasshouse pot test). Settings: Application post-emergence, rate 1000 g/ha, evaluated after 13 days.
Type: in vivo
Set-up: key: 0 = no damage to plant, 5 = total damage to plant
In short: (§1)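 Damage rated 0 (none) to 5 (total) 13 days after spraying. Plants were treated post-emergence at 8 days after sowing, using an acetone/water (50:50) formulation with 0.5% Tween 20 diluted to an aqueous spray.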

SMILES | SETFA herbicidal damage score
COC1=C(C)C(O)N(c2cc(C(C)(F)F)c(C#N)nn2)C1=O (stereo not drawn) [BI23] | 4
COC1=C(C)C(O)N(c2cc(C(C)(F)F)c(C)nn2)C1=O (stereo not drawn) [BI24] | 5
C#CC(C)(C)NC(=O)c1ccc(N2C(=O)C(OC)=C(C)C2O)nn1 (stereo not drawn) [BI27] | 5
COC1=C(C)C(O)N(c2cc(C)c(Cl)nn2)C1=O (stereo not drawn) [BI29] | 4

Each compound was assayed on Abutilon theophrasti in the same assay as above. Settings: Application post-emergence, rate 1000 g/ha, evaluated after 13 days.
Type: in vivo
Set-up: key: 0 = no damage to plant, 5 = total damage to plant
In short: as §1

SMILES | ABUTH herbicidal damage score
COC1=C(C)C(O)N(c2cc(C(C)(F)F)c(C#N)nn2)C1=O (stereo not drawn) [BI23] | 4
COC1=C(C)C(O)N(c2cc(C(C)(F)F)c(C)nn2)C1=O (stereo not drawn) [BI24] | 5
C#CC(C)(C)NC(=O)c1ccc(N2C(=O)C(OC)=C(C)C2O)nn1 (stereo not drawn) [BI27] | 5
COC1=C(C)C(O)N(c2cc(C)c(Cl)nn2)C1=O (stereo not drawn) [BI29] | 1

The compounds below were run on Alopecurus myosuroides in the same assay as above. Settings: Application post-emergence, rate 1000 g/ha, evaluated after 13 days.
Type: in vivo
Set-up: key: 0 = no damage to plant, 5 = total damage to plant
In short: as §1

SMILES | ALOMY herbicidal damage score
COC1=C(C)C(O)N(c2cc(C(C)(F)F)c(C#N)nn2)C1=O (stereo not drawn) [BI23] | 4
COC1=C(C)C(O)N(c2cc(C(C)(F)F)c(C)nn2)C1=O (stereo not drawn) [BI24] | 4
C#CC(C)(C)NC(=O)c1ccc(N2C(=O)C(OC)=C(C)C2O)nn1 (stereo not drawn) [BI27] | 4
COC1=C(C)C(O)N(c2cc(C)c(Cl)nn2)C1=O (stereo not drawn) [BI29] | 2

Each compound was assayed on Echinochloa crus-galli in the same assay as above. Settings: Application post-emergence, rate 1000 g/ha, evaluated after 13 days.
Type: in vivo
Set-up: key: 0 = no damage to plant, 5 = total damage to plant
In short: as §1

SMILES | ECHCG herbicidal damage score
COC1=C(C)C(O)N(c2cc(C(C)(F)F)c(C#N)nn2)C1=O (stereo not drawn) [BI23] | 4
COC1=C(C)C(O)N(c2cc(C(C)(F)F)c(C)nn2)C1=O (stereo not drawn) [BI24] | 5
C#CC(C)(C)NC(=O)c1ccc(N2C(=O)C(OC)=C(C)C2O)nn1 (stereo not drawn) [BI27] | 5
COC1=C(C)C(O)N(c2cc(C)c(Cl)nn2)C1=O (stereo not drawn) [BI29] | 3

The compounds below were run on zea mays in the same assay as above. Settings: Application post-emergence, rate 1000 g/ha, evaluated after 13 days.
Type: in vivo
Set-up: key: 0 = no damage to plant, 5 = total damage to plant
In short: as §1

SMILES | ZEAMX herbicidal damage score
COC1=C(C)C(O)N(c2cc(C(C)(F)F)c(C#N)nn2)C1=O (stereo not drawn) [BI23] | 1
COC1=C(C)C(O)N(c2cc(C(C)(F)F)c(C)nn2)C1=O (stereo not drawn) [BI24] | 3
C#CC(C)(C)NC(=O)c1ccc(N2C(=O)C(OC)=C(C)C2O)nn1 (stereo not drawn) [BI27] | 4
COC1=C(C)C(O)N(c2cc(C)c(Cl)nn2)C1=O (stereo not drawn) [BI29] | 0

What follows are compounds tested on Amaranthus retroflexus in the same assay as above. Settings: Application post-emergence, rate 1000 g/ha, evaluated after 13 days.
Type: in vivo
Set-up: key: 0 = no damage to plant, 5 = total damage to plant
In short: as §1

SMILES | AMARE herbicidal damage score
COC1=C(C)C(O)N(c2cc(C(C)(F)F)c(C#N)nn2)C1=O (stereo not drawn) [BI23] | 3
COC1=C(C)C(O)N(c2cc(C(C)(F)F)c(C)nn2)C1=O (stereo not drawn) [BI24] | 5
C#CC(C)(C)NC(=O)c1ccc(N2C(=O)C(OC)=C(C)C2O)nn1 (stereo not drawn) [BI27] | 5
COC1=C(C)C(O)N(c2cc(C)c(Cl)nn2)C1=O (stereo not drawn) [BI29] | 5

What follows are compounds tested on Setaria faberi (assay: Pre-emergence herbicidal activity, glasshouse pot test). Settings: pre-emergence spray, rate 1000 g/ha, evaluated after 13 days, scale 0-5.
Type: in vivo
In short: (§2)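 Test species were sown in pots and, after one day under controlled glasshouse conditions, treated with an aqueous spray of the active ingredient in acetone/water containing 0.5% Tween 20. Evaluation followed 13 days later, scoring plant damage from 0 (none) to 5 (total).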

SMILES | SETFA damage score, application pre-emergence
COC1=C(C)C(O)N(c2cc(C(C)(F)F)c(C#N)nn2)C1=O (stereo not drawn) [BI23] | 2
COC1=C(C)C(O)N(c2cc(C(C)(F)F)c(C)nn2)C1=O (stereo not drawn) [BI24] | 4
C#CC(C)(C)NC(=O)c1ccc(N2C(=O)C(OC)=C(C)C2O)nn1 (stereo not drawn) [BI27] | 4
COC1=C(C)C(O)N(c2cc(C)c(Cl)nn2)C1=O (stereo not drawn) [BI29] | 2

What follows are compounds tested on Abutilon theophrasti in the same assay as above. Settings: pre-emergence spray, rate 1000 g/ha, evaluated after 13 days, scale 0-5.
Type: in vivo
In short: as §2

SMILES | ABUTH damage score, application pre-emergence
COC1=C(C)C(O)N(c2cc(C(C)(F)F)c(C#N)nn2)C1=O (stereo not drawn) [BI23] | 4
COC1=C(C)C(O)N(c2cc(C(C)(F)F)c(C)nn2)C1=O (stereo not drawn) [BI24] | 5
C#CC(C)(C)NC(=O)c1ccc(N2C(=O)C(OC)=C(C)C2O)nn1 (stereo not drawn) [BI27] | 4
COC1=C(C)C(O)N(c2cc(C)c(Cl)nn2)C1=O (stereo not drawn) [BI29] | 0

Each compound was assayed on Alopecurus myosuroides in the same assay as above. Settings: pre-emergence spray, rate 1000 g/ha, evaluated after 13 days, scale 0-5.
Type: in vivo
In short: as §2

SMILES | ALOMY damage score, application pre-emergence
COC1=C(C)C(O)N(c2cc(C(C)(F)F)c(C#N)nn2)C1=O (stereo not drawn) [BI23] | 4
COC1=C(C)C(O)N(c2cc(C(C)(F)F)c(C)nn2)C1=O (stereo not drawn) [BI24] | 4
C#CC(C)(C)NC(=O)c1ccc(N2C(=O)C(OC)=C(C)C2O)nn1 (stereo not drawn) [BI27] | 2
COC1=C(C)C(O)N(c2cc(C)c(Cl)nn2)C1=O (stereo not drawn) [BI29] | 3

These compounds were tested on Echinochloa crus-galli in the same assay as above. Settings: pre-emergence spray, rate 1000 g/ha, evaluated after 13 days, scale 0-5.
Type: in vivo
In short: as §2

SMILES | ECHCG damage score, application pre-emergence
COC1=C(C)C(O)N(c2cc(C(C)(F)F)c(C#N)nn2)C1=O (stereo not drawn) [BI23] | 4
COC1=C(C)C(O)N(c2cc(C(C)(F)F)c(C)nn2)C1=O (stereo not drawn) [BI24] | 4
C#CC(C)(C)NC(=O)c1ccc(N2C(=O)C(OC)=C(C)C2O)nn1 (stereo not drawn) [BI27] | 4
COC1=C(C)C(O)N(c2cc(C)c(Cl)nn2)C1=O (stereo not drawn) [BI29] | 3

The compounds below were run on zea mays in the same assay as above. Settings: pre-emergence spray, rate 1000 g/ha, evaluated after 13 days, scale 0-5.
Type: in vivo
In short: as §2

SMILES | ZEAMX damage score, application pre-emergence
COC1=C(C)C(O)N(c2cc(C(C)(F)F)c(C#N)nn2)C1=O (stereo not drawn) [BI23] | 1
COC1=C(C)C(O)N(c2cc(C(C)(F)F)c(C)nn2)C1=O (stereo not drawn) [BI24] | 3
C#CC(C)(C)NC(=O)c1ccc(N2C(=O)C(OC)=C(C)C2O)nn1 (stereo not drawn) [BI27] | 1
COC1=C(C)C(O)N(c2cc(C)c(Cl)nn2)C1=O (stereo not drawn) [BI29] | 1

These compounds were tested on Amaranthus retroflexus in the same assay as above. Settings: pre-emergence spray, rate 1000 g/ha, evaluated after 13 days, scale 0-5.
Type: in vivo
In short: as §2

SMILES | AMARE damage score, application pre-emergence
COC1=C(C)C(O)N(c2cc(C(C)(F)F)c(C#N)nn2)C1=O (stereo not drawn) [BI23] | 5
COC1=C(C)C(O)N(c2cc(C(C)(F)F)c(C)nn2)C1=O (stereo not drawn) [BI24] | 5
C#CC(C)(C)NC(=O)c1ccc(N2C(=O)C(OC)=C(C)C2O)nn1 (stereo not drawn) [BI27] | 5
COC1=C(C)C(O)N(c2cc(C)c(Cl)nn2)C1=O (stereo not drawn) [BI29] | 3
